Reference: patent US20080038277A1, “Dna Pkinase Inhibitors For Treating Cancer And Diabetes” (priority 2004, published 2008)

Tests used:
PKB = details: cisplatin treatment (ref. 32); cited from earlier work
DNA-PK = details: through proteolytic degradation of DNA-PK (ref. 31); cited from earlier work
purified DNA-PK = molecular target: T1, purified DNA-PK (Homo sapiens, UniProt P78527); assay: Purified DNA-PK phosphorylation of PKB (FSY peptide / GST-PKBα419-480); type: biochemical; details: FSY peptide and GST-PKBα419-480; staurosporine 5 μM (FIGS. 2A and B)
T1 construct: purified DNA-PK (from HeLa cells and human placenta) was tested; purchased Promega; host or cells: HeLa cells and human placenta
Method: FIG. 2. DNA-PK phosphorylates and activates PKB in vitro. (A) Purified DNA-PK (Promega) (25 units) was assayed with 0.1 mg/ml of FSY, FAY and DNA-PK p53 substrate peptide (CTL) in the presence (+) or absence (−) of DNA. […]; aliquots of the reaction mixture were removed for assay of PKB activity as described in FIG. 1D or for Western blotting with pS473 and pT308 phospho-specific antibodies. (D) GST-PKBα419-480 and His-p53 (each 1 μg) were incubated with 25 units of purified DNA-PK and 100 μM [γ-32P]ATP in kinase buffer (11). The reactions were terminated and analyzed on 10% SDS-PAGE followed by autoradiography or 32P determination in excised gel slices.
An antibody specific for PKB phosphorylated on Thr-308 (pT308) was purchased from Cell Signaling Technologies. An antibody specific for PKB phosphorylated on Ser-473 (pS473) was produced and purified as previously described (33). Polyclonal anti-PKB antibody (antibody10) (34) and monoclonal anti-PKB (A4D6) (35) have been described previously. Anti-Ku80, and anti-Ku 70 antibodies were purchased from Transduction Labs. Anti-DNA-PKcs (monoclonal G4) was from Santa Cruz Inc. Double-stranded fetal calf thymus DNA was from Sigma, and purified human DNA-PK protein and p53 substrate peptide […] (36) from Promega. […]

S473K1 = molecular target: T2, S473K1 (Homo sapiens, UniProt P78527); assay: S473K1 (Mono Q fraction 27) kinase assay with FSY peptide plus DNA, or GST-PKBα419-480 and pS473 Western blot; type: biochemical; details: LY294002 5 μM, wortmannin 2 μM, staurosporine 5 μM; FSY peptide in presence of DNA and GST-PKBα419-480 (FIGS. 1E and F)
T2 construct: purification and identification of this kinase from HEK293 cells; endogenous in cells; host or cells: HEK293 crude membrane fraction, purified over Q-Sepharose, Mono S and Mono Q
T2 sequence (P78527 whole entry, one chain of several): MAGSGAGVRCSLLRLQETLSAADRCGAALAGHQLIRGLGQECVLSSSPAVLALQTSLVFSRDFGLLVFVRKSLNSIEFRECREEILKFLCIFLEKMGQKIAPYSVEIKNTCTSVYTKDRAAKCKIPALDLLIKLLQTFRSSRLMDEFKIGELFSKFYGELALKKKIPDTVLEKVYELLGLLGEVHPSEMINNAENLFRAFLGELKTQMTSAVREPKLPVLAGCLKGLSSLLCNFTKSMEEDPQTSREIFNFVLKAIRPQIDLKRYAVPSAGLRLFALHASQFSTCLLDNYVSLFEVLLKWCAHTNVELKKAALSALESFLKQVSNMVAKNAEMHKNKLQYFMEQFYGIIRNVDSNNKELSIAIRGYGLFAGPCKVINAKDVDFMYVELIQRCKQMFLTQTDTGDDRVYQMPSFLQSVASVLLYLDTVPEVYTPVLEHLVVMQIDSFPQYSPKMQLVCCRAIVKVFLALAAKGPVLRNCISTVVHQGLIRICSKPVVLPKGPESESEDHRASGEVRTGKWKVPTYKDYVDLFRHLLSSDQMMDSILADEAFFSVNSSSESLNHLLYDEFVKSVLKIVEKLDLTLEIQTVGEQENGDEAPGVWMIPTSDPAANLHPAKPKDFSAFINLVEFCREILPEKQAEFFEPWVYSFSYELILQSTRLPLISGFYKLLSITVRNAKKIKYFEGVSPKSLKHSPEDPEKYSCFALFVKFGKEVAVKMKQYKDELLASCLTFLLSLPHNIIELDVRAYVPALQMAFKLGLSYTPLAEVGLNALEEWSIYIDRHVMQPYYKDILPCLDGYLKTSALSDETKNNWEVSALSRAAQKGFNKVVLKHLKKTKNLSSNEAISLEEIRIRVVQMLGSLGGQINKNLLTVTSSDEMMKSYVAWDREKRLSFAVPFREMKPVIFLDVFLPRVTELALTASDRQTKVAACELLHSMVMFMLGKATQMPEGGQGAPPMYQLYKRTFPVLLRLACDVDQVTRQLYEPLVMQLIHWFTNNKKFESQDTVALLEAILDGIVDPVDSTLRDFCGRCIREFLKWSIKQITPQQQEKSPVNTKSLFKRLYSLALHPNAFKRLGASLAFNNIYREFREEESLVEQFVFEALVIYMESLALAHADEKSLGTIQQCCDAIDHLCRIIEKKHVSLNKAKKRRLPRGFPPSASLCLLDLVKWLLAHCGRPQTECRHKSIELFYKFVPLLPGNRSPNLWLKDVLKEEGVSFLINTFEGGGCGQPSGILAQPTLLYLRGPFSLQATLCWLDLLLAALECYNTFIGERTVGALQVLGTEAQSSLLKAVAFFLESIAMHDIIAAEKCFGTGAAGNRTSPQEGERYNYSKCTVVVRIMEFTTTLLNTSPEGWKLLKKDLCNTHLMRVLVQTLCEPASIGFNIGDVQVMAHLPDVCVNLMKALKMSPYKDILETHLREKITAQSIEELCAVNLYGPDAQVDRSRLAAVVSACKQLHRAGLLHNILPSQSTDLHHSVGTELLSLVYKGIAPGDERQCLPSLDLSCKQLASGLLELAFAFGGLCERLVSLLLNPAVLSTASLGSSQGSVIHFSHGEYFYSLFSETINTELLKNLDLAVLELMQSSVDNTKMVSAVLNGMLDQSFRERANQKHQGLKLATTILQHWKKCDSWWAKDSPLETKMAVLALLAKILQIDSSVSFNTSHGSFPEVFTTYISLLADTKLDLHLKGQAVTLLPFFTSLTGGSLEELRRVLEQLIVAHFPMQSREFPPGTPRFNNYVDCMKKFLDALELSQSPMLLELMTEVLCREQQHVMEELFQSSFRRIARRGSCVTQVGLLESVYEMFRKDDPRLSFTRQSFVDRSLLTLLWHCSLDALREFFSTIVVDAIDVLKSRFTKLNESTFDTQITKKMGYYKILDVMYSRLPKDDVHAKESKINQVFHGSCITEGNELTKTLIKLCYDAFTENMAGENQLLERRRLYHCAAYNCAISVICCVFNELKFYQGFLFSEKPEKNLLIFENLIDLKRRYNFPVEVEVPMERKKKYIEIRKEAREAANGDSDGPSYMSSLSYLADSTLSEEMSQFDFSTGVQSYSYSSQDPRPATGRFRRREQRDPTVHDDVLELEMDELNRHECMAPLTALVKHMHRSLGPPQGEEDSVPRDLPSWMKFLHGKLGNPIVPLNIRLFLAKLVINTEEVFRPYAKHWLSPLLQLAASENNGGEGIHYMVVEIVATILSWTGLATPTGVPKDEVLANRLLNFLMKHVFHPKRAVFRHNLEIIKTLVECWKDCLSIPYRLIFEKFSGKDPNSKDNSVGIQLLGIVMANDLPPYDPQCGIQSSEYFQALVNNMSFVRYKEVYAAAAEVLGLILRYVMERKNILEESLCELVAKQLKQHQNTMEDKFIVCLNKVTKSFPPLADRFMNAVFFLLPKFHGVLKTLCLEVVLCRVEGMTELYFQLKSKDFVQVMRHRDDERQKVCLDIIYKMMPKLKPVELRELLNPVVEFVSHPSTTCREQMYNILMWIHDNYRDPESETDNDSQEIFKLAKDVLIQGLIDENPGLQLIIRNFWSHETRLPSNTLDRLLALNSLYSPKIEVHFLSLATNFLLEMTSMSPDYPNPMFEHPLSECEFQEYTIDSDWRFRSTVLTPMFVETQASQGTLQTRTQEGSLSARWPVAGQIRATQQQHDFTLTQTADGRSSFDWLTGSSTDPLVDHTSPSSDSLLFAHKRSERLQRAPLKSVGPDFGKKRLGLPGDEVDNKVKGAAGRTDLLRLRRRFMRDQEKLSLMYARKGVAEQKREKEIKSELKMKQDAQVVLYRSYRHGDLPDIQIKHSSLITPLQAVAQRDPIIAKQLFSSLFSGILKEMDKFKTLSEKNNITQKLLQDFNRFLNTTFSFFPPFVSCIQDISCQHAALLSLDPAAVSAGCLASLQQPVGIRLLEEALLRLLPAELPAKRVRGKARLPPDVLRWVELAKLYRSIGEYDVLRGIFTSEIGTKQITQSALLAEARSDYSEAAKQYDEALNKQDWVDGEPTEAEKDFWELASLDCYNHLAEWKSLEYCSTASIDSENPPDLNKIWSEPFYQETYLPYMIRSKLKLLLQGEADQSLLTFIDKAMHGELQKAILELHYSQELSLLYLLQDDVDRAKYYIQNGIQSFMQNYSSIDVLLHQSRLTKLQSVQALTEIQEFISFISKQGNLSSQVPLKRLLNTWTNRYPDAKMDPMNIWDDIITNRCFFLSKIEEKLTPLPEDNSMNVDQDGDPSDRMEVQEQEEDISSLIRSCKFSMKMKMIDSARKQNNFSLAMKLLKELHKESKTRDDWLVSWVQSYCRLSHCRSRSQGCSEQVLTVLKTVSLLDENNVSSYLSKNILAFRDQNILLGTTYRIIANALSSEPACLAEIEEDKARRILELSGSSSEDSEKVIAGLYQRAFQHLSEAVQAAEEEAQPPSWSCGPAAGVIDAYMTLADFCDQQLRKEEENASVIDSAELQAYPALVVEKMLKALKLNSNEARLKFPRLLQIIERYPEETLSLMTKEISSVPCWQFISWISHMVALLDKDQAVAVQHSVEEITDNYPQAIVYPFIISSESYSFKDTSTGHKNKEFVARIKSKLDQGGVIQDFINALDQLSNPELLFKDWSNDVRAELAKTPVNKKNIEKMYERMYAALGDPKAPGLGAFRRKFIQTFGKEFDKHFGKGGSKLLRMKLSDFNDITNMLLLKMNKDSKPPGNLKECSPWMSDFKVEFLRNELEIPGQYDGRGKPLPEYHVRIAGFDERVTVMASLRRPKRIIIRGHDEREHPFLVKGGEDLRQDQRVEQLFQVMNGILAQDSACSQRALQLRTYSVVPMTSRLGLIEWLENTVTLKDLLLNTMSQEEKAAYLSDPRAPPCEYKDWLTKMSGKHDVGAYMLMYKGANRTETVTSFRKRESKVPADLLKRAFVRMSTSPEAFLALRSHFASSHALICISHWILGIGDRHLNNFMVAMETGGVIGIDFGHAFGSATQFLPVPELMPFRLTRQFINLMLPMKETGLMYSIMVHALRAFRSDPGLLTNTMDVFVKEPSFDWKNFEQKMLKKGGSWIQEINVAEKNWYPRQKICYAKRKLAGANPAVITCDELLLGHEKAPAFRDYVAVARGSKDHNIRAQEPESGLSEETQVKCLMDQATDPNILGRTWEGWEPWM
Method: FIG. 1. Identification and purification of S473K. (A-C) Mono Q fractions were assayed for S473K activity with the FSY (solid) or FAY peptides (open) in the presence (triangles) or absence (circles) of DNA. […] (B) A 10-μl aliquot of each fraction was subjected to 8% SDS-PAGE and proteins visualized by Coomassie Blue staining. (C) Western blotting of fractions with anti-DNA-PKcs and anti-Ku80/Ku70 antibodies. (D) Recombinant ΔPH-PKBαT309P (PKB) was first incubated with S473K1 (5 μl), 10 μg/ml fetal calf thymus DNA, and 100 μM ATP in kinase buffer for different times. Aliquots of the reaction mixture were removed for assay of PKB activity as described in (11) or for Western blotting with pS473 and pT308 phospho-specific antibodies. […].
All steps were performed at 4° C. Four hundred plates (Ø […]) of HEK293 cells were harvested in ice-cold phosphate-buffered saline and homogenized in ice-cold buffer A (50 mM Tris-HCl pH 7.4, 300 mM sucrose, 1 mM dithiothreitol, 10 mM sodium fluoride, 0.1 mM sodium orthovanadate, 20 nM okadiac acid, 1 mM phenylmethanesulfonyl fluoride and 1 mM benzamidine) using a polytron homogenizer. The nuclear fraction was removed by centrifuging at 1000 g for 10 min and the resulting supernatant was further centrifuged at 100,000 g for 60 min. […]

For `N.N.[Cl][Pt][Cl]` [cisplatin], the “PKB activity and Ser-473 phosphorylation” value (PKB) is listed as “inhibited” and the DNA-PK activity (DNA-PK) is listed as “decrease”.
For `CN[C@@H]1C[C@H]2O[C@@](C)([C@@H]1OC)n1c3ccccc3c3c4c(c5c6ccccc6n2c5c31)C(=O)NC4` [staurosporine], the “phosphorylation of PKB catalyzed by purified DNA-PK” value (purified DNA-PK) was “resistant” and the S473K1 activity (S473K1) was “not affected”.
